Legend:
Tetranychus kanzawai = test: Efficacy confirmation test on Tetranychus kanzawai; type: in vivo; settings: 125 ppm sprayed on kidney bean seedlings with female imagoes, 10th day after spraying, read-out: Mortality rate (converted)
Protocol: (§1) An emulsion was prepared in the same manner as in Test Example 1. The emulsion was diluted with water so that the compound of the present invention is to be 125 ppm to obtain a chemical solution.
Kidney bean plants were raised in 3 pots, and inoculated with 10 female imagoes of tetranychus kanzawai on primary leaves. The medicinal solution was sprayed on the kidney bean seedlings. The kidney bean seedlings were placed in a thermostatic chamber at a temperature of 25° C. and a humidity of 65%. On the 10th day after spraying, the survival and death of imagoes of tetranychus kanzawai were determined and the mortality rate was calculated. The test was performed in duplicate.
(§2) The mortality rate was calculated in the same manner as in Test Example 3.

bean aphid = test: Efficacy confirmation test on bean aphid; type: in vivo; settings: 125 ppm sprayed on cowpea seedlings with bean aphid nymphs, 4th day after spraying; read-out: Mortality rate (converted)
Protocol: as §1
Cowpea plants were raised in No. 3 pots and inoculated with bean aphid nymphs on primary leaves. The chemical solution was sprayed on the cowpea seedlings. The cowpea seedlings were placed in a thermostatic chamber at a temperature of 25° C. and a humidity of 60%. On the 4th day after spraying, the life and death of the aphid were determined and the mortality rate was calculated. The test was performed in duplicate.
as §2

melting point | Structure (SMILES) | mortality at 125 ppm (Tetranychus kanzawai) | mortality at 125 ppm (bean aphid)
284 to 286 °C | Cc1nc2cc(Cc3c(C(C)C)nc(C)c(C)c3O)ccc2s1 [7-13] |  | 
300 °C | Cc1nc(C(C)C)c(Cc2ccc3sc4ccccc4c3c2)c(O)c1C [7-32] |  | 
98 to 100 °C | CCO/N=C(/NC(=O)C(F)(F)C(F)(F)F)c1ccc(Cc2c(C(C)C)nc(C)c(C)c2OC(=O)OC)cc1 [7-46] |  | 
300 °C | Cc1nc(C(C)C)c(Cc2ccc(NC(=O)CC(C)(C)C)cc2)c(O)c1C [7-52] |  | 
300 °C | Cc1nc(C(C)C)c(Cc2cccc3c2oc2ccccc23)c(O)c1C [7-30] |  | 
125 to 126 °C | COC(=O)Oc1c(C)c(C)nc(C(C)C)c1Cc1ccc2ccc(C(F)(F)F)nc2c1 [7-27] |  | 
114 to 116 °C | COC(=O)Oc1c(C)c(C)nc(C(C)C)c1Cc1cccc2c1oc1ccccc12 [7-31] |  | 
154 to 155 °C | COC(=O)Oc1c(C)c(C)nc(C(C)C)c1Cc1ccc2sc3ccccc3c2c1 [7-33] |  | 
 | COC(=O)Oc1c(C)c(C)nc(C(C)C)c1Cc1ccc2sc(C(F)(F)F)nc2c1 [7-20] | 100% | 
118 to 121 °C | Cc1nc(C)c(Cc2cc(-c3ccc(C(F)(F)F)cc3)on2)c(OCc2ccccc2)c1C [7-4] |  | 
145 to 147 °C | C=CCOc1c(C)c(C)nc(C)c1CN1C(=O)c2ccccc2C1=O [7-7] |  | 
127 to 128 °C | COC(=O)Oc1c(C)c(C)nc(C(C)C)c1Cc1ccc2ncccc2c1 [7-22] |  | 
 | COC(=O)Oc1c(C)c(C)nc(C(C)C)c1Cc1ccc(-c2ccc(OC(F)(F)F)cc2)s1 [7-9] |  | 100%
 | COC(=O)Oc1c(C)c(C)nc(C(C)C)c1Cc1ccc2ccccc2c1 [7-12] | 100% | 
 | COC(=O)Oc1c(C)c(C)nc(C(C)C)c1Cc1ccc(Oc2ccc(OC(F)(F)F)cc2)cc1 [1-9, (2-isopropyl-5,6-dimethyl-3-((4-(4-(trifluoromethoxy)phenoxy)phenyl)methyl)-4-pyridyl) methyl carbonate] | 100% | 100%
107 to 108 °C | COc1c(C)c(C)nc(C(C)C)c1Cc1ccc(C2CCC3(CC2)OCCO3)cc1 [7-42] |  | 
58 to 59 °C | COC(=O)Oc1c(C)c(C)cc(C(C)C)c1Cc1ccc(-c2ccc(C(C)=NOC3CCC(C(F)(F)F)CC3)cc2)cc1 (stereo not shown) [7-53] |  | 
115 to 120 °C | COCCC(=O)NC1CCc2cc(Cc3c(C(C)C)nc(C)c(C)c3O)ccc21 (stereo not shown) [7-34] |  | 
273 to 274 °C | Cc1nc(C(C)C)c(Cc2ccc3sc(C(F)(F)F)nc3c2)c(O)c1C [7-19] |  | 

melting point | Structure (SMILES) | mortality at 125 ppm (Tetranychus kanzawai) | mortality at 125 ppm (bean aphid)
250 °C | Cc1nc(C(C)C)c(Cc2ccc(-c3ccc(OC(F)(F)F)cc3)s2)c(O)c1C [7-8] |  | 
221 to 224 °C | Cc1nc(C(C)C)c(Cc2ccc3c(c2)C(c2ccc(F)cc2)CC3)c(O)c1C (stereo not shown) [7-28] |  | 
268 to 270 °C | Cc1nc(C(C)C)c(Cc2ccc3ccccc3c2)c(O)c1C [7-11] |  | 
200 °C | Cc1nc(C)c(Cc2cc(-c3ccc(C(F)(F)F)cc3)on2)c(O)c1C [7-5] |  | 
 | COC(=O)Oc1c(C)c(C)nc(C(C)C)c1Cc1ccc(-c2noc(C(F)(F)F)n2)cc1 [1-44, 2-isopropyl-5,6-dimethyl-3-(4-(5-(trifluoromethyl)-1,2,4-oxadiazole-3-yl)benzyl) pyridine-4-yl methyl carbonate] | 100% | 100%
260 to 262 °C | Cc1nc(C(C)C)c(Cc2ccc3c(c2)CCC3c2ccc(F)cc2)c(O)c1C (stereo not shown) [7-15] |  | 
154 to 155 °C | COc1c(C)c(C)nc(C(C)C)c1Cc1ccc(NC(=O)CC(C)(C)C)cc1 [7-51] |  | 
 | COC(=O)Oc1c(C)c(C)nc(C(C)C)c1Cc1ccc2c(c1)CCC2c1ccc(F)cc1 (stereo not shown) [7-16] | 100% | 
 | COC(=O)Oc1c(C)c(C)nc(C(C)C)c1Cc1ccc2nc(C(F)(F)F)ccc2c1 [7-25] | 100% | 
290 to 292 °C | Cc1nc(C(C)C)c(Cc2ccc3ccc(C(F)(F)F)nc3c2)c(O)c1C [7-26] |  | 
101 to 115 °C | CCO/N=C(/NC(=O)C1CCC(C)CC1)c1ccc(Cc2c(C(C)C)nc(C)c(C)c2O)cc1 (stereo not shown) [7-43] |  | 
170 to 173 °C | CC(=O)Oc1c(C)c(C)nc(C)c1Cc1cc(-c2ccc(C(F)(F)F)cc2)on1 [7-6] |  | 
 | COC(=O)Oc1c(C)c(C)nc(C)c1Cc1ccc(Oc2ccc(OC(F)(F)F)cc2)cc1 [1-3, methyl (2,3,6-trimethyl-5-((4-(4-(trifluoromethoxy)phenoxy)phenyl)methyl)-4-pyridyl) carbonate] | 100% | 100%
254 to 256 °C | Cc1nc(C(C)C)c(Cc2ccc3ncccc3c2)c(O)c1C [7-21] |  | 
268 to 269 °C | Cc1nc(C(C)C)c(Cc2ccc3cc(C(F)(F)F)ccc3c2)c(O)c1C [7-24] |  | 
210 to 212 °C | CCO/N=C(/NC(=O)C(F)(F)C(F)(F)F)c1ccc(Cc2c(C(C)C)nc(C)c(C)c2O)cc1 [7-45] |  | 
296 to 298 °C | Cc1nc(C(C)C)c(Cc2cccc3c2CCC3c2ccc(F)cc2)c(O)c1C (stereo not shown) [7-17] |  | 
169 to 171 °C | COC(=O)Oc1c(C)c(C)nc(C(C)C)c1Cc1ccc(C(=O)NC(=O)C2CCC(C)CC2)cc1 (stereo not shown) [7-47] |  | 
